Experimental data: US20120258873A1 (priority 2011, published 2012)

Experiments:
Assay type in all cases: biochemical
[1] = molecular target: dihydroxyacid dehydratase (DHAD) (Streptococcus mutans serotype c, UniProt Q8DRT7); assay: Inhibition of DHAD conversion of DHIV to 2-KIV by DHMB, colorimetric assay; settings: read-out: inhibition constants (Ki) for DHAD
Protocol: 101: 999-1004 (1993). The assay took place in a 2 mL Eppendorf tube placed in a heating block maintained at 30° C. […] The assay was initiated by adding a 10× concentrated stock of substrate. Samples were removed (0.35 mL) at times 0.1 and 30 minutes, and the reaction was stopped by mixing into 0.35 mL 0.1 N HCl with 0.05% 2,4-dinitrophenylhydrazine (Aldrich) in a second Eppendorf tube. After incubating 30 minutes at room temperature, 0.35 mL of 4N NaOH was added to the mixture, mixed, and centrifuged at 15,000×G for 2 minutes in a centrifuge (Beckman-Coulter Microfuge 18). The absorbance of the solution at 540 nm was then measured in a 1 cm pathlength cuvette using a Cary 300 Bio UV-Vis spectrophometer (Varian). Based on a standard curve using authentic 2-KIV (Fluka), 1 OD absorbance at 540 nm is produced by 0.28 mM 2-KIV. […] Both forms of DHMB behaved liked competitive inhibitors of DHIV. […] The fast and slow isomers of DHMB had calculated inhibition constants of 7 mM and 5 mM, respectively.

[2] = molecular target: JEA1 (derivative of Pseudomonas fluorescens KARI) (Pseudomonas fluorescens, UniProt Q4K608); assay: Inhibition of purified KARI by DHMB, spectrophotometric NADPH oxidation assay; settings: competitive vs. acetolactate, 30° C., pH 6.8, NADPH 0.2 mM, read-out: KI Values for KARI Inhibition by DHMB Isomers
Protocol: (§1) The buffer was 0.1 M K^+ Hepes, pH 6.8, containing 10 mM MgCl2 and 1 mM EDTA. NADPH was present at 0.2 mM, and racemic acetolactate was present at either 3 mM or 0.725 mM (S) isomer. The rate of NADPH oxidation in the presence and absence of either fast or slow DHMB was measured. Vmax for each sample was calculated from the observed rate and the known acetolactate Km using the Michaelis-Menten equation. A volumetric Ki was estimated for each measurement in the presence of DHMB using the Michaelis-Menten equation as modified for competitive inhibition vs. acetolactate (the Km term in the MM equation is multiplied by (1+[I]/Ki), and the equation is solved for Ki. The results were converted to mM upon completion of the NMR experiment and are shown in Table 5.

[3] = molecular target: K9D3 (derivative of Anaerostipes caccae KARI) (Anaerostipes caccae, UniProt B0MCX7, S56A/S58D); assay: as above; settings: competitive vs. acetolactate, 30° C., pH 6.8, NADPH 0.2 mM, read-out: KI Values for KARI Inhibition by DHMB Isomers
Sequence of K9D3 (derivative of Anaerostipes caccae KARI) (B0MCX7 1-343, stated change not applied): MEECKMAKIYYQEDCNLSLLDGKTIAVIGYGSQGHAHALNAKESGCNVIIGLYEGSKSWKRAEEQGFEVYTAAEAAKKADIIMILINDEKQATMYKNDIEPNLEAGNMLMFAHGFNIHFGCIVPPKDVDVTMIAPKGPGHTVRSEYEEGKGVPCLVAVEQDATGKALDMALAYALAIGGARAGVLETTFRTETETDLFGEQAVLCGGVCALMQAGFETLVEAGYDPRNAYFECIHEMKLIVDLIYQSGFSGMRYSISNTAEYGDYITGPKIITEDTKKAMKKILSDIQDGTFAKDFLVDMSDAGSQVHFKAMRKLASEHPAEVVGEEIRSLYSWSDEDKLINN
Protocol: as §1

Sequence of JEA1 (derivative of Pseudomonas fluorescens KARI) (Q4K608 whole entry): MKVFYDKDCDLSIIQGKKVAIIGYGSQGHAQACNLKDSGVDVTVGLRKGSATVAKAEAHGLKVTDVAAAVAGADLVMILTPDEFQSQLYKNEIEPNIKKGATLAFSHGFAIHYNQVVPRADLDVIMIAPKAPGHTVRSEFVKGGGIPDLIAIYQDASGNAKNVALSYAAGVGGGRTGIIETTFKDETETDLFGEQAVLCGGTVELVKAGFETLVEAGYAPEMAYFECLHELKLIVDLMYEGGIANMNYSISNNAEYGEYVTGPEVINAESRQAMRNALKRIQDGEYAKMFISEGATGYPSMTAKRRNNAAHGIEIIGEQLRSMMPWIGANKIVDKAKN
Sequence of dihydroxyacid dehydratase (DHAD) (Q8DRT7 whole entry): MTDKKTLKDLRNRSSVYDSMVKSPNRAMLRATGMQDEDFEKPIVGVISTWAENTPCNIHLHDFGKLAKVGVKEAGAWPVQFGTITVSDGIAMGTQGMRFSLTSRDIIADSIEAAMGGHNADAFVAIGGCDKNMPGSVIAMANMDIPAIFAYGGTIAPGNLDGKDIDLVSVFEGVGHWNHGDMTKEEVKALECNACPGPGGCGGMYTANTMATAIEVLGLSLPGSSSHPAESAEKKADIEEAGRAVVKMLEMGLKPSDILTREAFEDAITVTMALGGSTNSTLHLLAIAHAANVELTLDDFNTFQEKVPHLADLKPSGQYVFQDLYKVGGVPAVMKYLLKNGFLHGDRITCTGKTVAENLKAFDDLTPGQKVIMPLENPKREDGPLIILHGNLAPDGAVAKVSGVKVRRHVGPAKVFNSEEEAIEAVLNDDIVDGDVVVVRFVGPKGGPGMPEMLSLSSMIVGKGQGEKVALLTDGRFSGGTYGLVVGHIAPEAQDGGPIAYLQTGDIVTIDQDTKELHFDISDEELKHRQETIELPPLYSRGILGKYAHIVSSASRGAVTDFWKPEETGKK

For `C[C@H](O)[C@](C)(O)C(=O)O` [Fast DHMB, 2,3-dihydroxy-2-methyl butyrate], the Ki [1] was 7000 µM, the Ki [2] was 230 µM and the Ki [3] was 300 µM.
For `C[C@@H](O)[C@](C)(O)C(=O)O` [Slow DHMB, 2,3-dihydroxy-2-methyl butyrate], the Ki [1] was 5000 µM, the Ki [2] was 230 µM and the Ki [3] was 200 µM.
